Experimental findings from patent US8618138B2, “Indole amide derivatives and related compounds for use in the treatment of neurodegenerative diseases” (Katholieke Universiteit Leuven, K.U. Leuven R&D, priority 2009, dated 2013) are described below.

For this assay, the system named is M17-TAU P301L cells. The assay can be described thus: TAU cytotoxicity assay: LDH leakage of retinoic acid incubated M17-TAU P301L cells. The assay is classed as cell-based, human. The following applies: Homo sapiens, 168 h, reduction of LDH activity of retinoic acid incubated M17-TAU P301L cells, 7 days. The method, boiled down:
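M17 neuroblastoma cells stably expressing human TAU P301L, seeded at 2500 cells/cm2 in Optimem with 1% FCS, then given 2.5 μM retinoic acid (stock before 1:1 addition) and grown 7 days at 37 °C. Cytotoxicity read as LDH leaked into medium; EC50 derived from these measurements.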
A general note: LDH leaks from cells whose membrane has failed.

The structures appear in SMILES notation.

What is called EC50 is the concentration needed to bring the measured effect to its halfway point. In turn, `Cc1ccc(N2CCC(C(=O)NCCc3c[nH]c4ccc(Cl)cc34)C2=O)cc1` (stereo not shown) [Example D133, N-(2-(5-chloro-1H-indol-3-yl)ethyl)-2-oxo-1-p-tolylpyrrolidine-3-carboxamide] returned an EC50 of 46 nM.

Compound `CC(=O)c1ccc(N2CCC(C(=O)NCCc3c[nH]c4ccc(Cl)cc34)C2=O)cc1` (stereo not shown) [Example D134, 1-(4-acetylphenyl)-N-(2-(5-chloro-1H-indol-3-yl)ethyl)-2-oxopyrrolidine-3-carboxamide] registered an EC50 of 86 nM.

On to `O=C(NCCc1c[nH]c2ccc(C(F)(F)F)cc12)c1cc(Cc2cc(F)ccc2F)on1` [Example D135, 5-(2,5-difluorobenzyl)-N-(2-(5-(trifluoromethyl)-1H-indol-3-yl)ethyl)isoxazole-3-carboxamide], for which the concentration giving a half-maximal response (EC50) was determined as 144 nM.

`Cc1cc2c(CCNC(=O)c3cc(Cc4cc(F)ccc4F)on3)c[nH]c2cc1Cl` [Example D136, N-(2-(6-chloro-5-methyl-1H-indol-3-yl)ethyl)-5-(2,5-difluorobenzyl)isoxazole-3-carboxamide]: the EC50 was 741 nM.

Compound `N#Cc1ccc2[nH]cc(CCNC(=O)c3cc(Cc4cc(F)ccc4F)on3)c2c1` [Example D137, N-(2-(5-cyano-1H-indol-3-yl)ethyl)-5-(2,5-difluorobenzyl)isoxazole-3-carboxamide] showed an EC50 of 32 nM.

Take `O=C(c1cc(Cc2cc(F)ccc2F)on1)N1CCC(c2c[nH]c3ccccc23)CC1` [Example D138, (4-(1H-indol-3-yl)piperidin-1-yl)(5-(2,5-difluorobenzyl)isoxazol-3-yl)methanone]: a half-maximal response (EC50) required 418 nM.

`O=C(c1cc(Cc2cc(F)ccc2F)on1)N1CCC(c2c[nH]c3ccc(Cl)cc23)CC1` [Example D139, (4-(5-chloro-1H-indol-3-yl)piperidin-1-yl)(5-(2,5-difluorobenzyl)isoxazol-3-yl)methanone] had an EC50 of 186 nM.

In the case of `O=C(NCCc1c[nH]c2ccc(-c3ccccc3)cc12)c1cc(Cc2cc(F)ccc2F)on1` [Example D140, 5-(2,5-difluorobenzyl)-N-(2-(5-phenyl-1H-indol-3-yl)ethyl)isoxazole-3-carboxamide], the half-maximal effective concentration (EC50) is 316 nM.

`O=C(NCCc1c[nH]c2c(F)cc(Cl)cc12)c1cc(Cc2cc(F)ccc2F)on1` [Example D141, N-(2-(5-chloro-7-fluoro-1H-indol-3-yl)ethyl)-5-(2,5-difluorobenzyl)isoxazole-3-carboxamide] gave an EC50 of 233 nM.

As for `O=C(NCCc1c[nH]c2ccc(Cl)cc12)C1CCN(c2ccc(Cl)c(F)c2)C1=O` (stereo not shown) [Example D142, N-(2-(5-chloro-1H-indol-3-yl)ethyl)-1-(4-chloro-3-fluorophenyl)-2-oxopyrrolidine-3-carboxamide], it took 561 nM to reach a half-maximal effect (EC50).

Consider `Cc1ccc(N2CCC(C(=O)NCCc3c[nH]c4ccc(Cl)cc34)C2=O)cc1C` (stereo not shown) [Example D143, N-(2-(5-chloro-1H-indol-3-yl)ethyl)-1-(3,4-dimethylphenyl)-2-oxopyrrolidine-3-carboxamide], for which the midpoint of the response, the EC50, lay at 1020 nM.

The compound `O=C(NCCc1c[nH]c2ccc(Cl)cc12)C1CCN(c2ccc3c(c2)CCC3)C1=O` (stereo not shown) [Example D145, N-(2-(5-chloro-1H-indol-3-yl)ethyl)-1-(2,3-dihydro-1H-inden-5-yl)-2-oxopyrrolidine-3-carboxamide] had an EC50 of 137 nM.

For `O=C(NCCc1c[nH]c2ccc(Cl)cc12)C1CCN(c2ccc3c(c2)COC3)C1=O` (stereo not shown) [Example D146, N-(2-(5-chloro-1H-indol-3-yl)ethyl)-1-(1,3-dihydroisobenzofuran-5-yl)-2-oxopyrrolidine-3-carboxamide], a half-maximal effect (EC50) was put at 1160 nM.

In turn, `COc1ccc(N2CCC(C(=O)NCCc3c[nH]c4ccc(Cl)cc34)C2=O)cc1F` (stereo not shown) [Example D147, N-(2-(5-chloro-1H-indol-3-yl)ethyl)-1-(3-fluoro-4-methoxyphenyl)-2-oxopyrrolidine-3-carboxamide] yielded an EC50 of 379 nM.

`O=C(NCCc1c[nH]c2ccc(Cl)cc12)C1CCN(c2ccc(F)c(F)c2)C1=O` (stereo not shown) [Example D148, N-(2-(5-chloro-1H-indol-3-yl)ethyl)-1-(3,4-difluorophenyl)-2-oxopyrrolidine-3-carboxamide] displayed an EC50 of 691 nM.

As to `O=C(NCCc1c[nH]c2ccc(Cl)cc12)C1CCN(C2CC2)C1=O` (stereo not shown) [Example D149, N-(2-(5-chloro-1H-indol-3-yl)ethyl)-1-cyclopropyl-2-oxopyrrolidine-3-carboxamide], the EC50 was found to be 2090 nM.

On to `O=C(NCCc1c[nH]c2ccc(Cl)cc12)C1CCN(c2ccc(C(F)(F)F)c(F)c2)C1=O` (stereo not shown) [Example D150, N-(2-(5-chloro-1H-indol-3-yl)ethyl)-1-(3-fluoro-4-(trifluoromethyl)phenyl)-2-oxopyrrolidine-3-carboxamide], for which a half-maximal response (EC50) required 23300 nM.

Regarding `O=C(NCCc1c[nH]c2ccc(Cl)cc12)C1CCN(c2c(F)cccc2F)C1=O` (stereo not shown) [Example D151, N-(2-(5-chloro-1H-indol-3-yl)ethyl)-1-(2,6-difluorophenyl)-2-oxopyrrolidine-3-carboxamide], the EC50 was 561 nM.

`Cc1ccc(N2CCC(C(=O)NCCc3c[nH]c4ccc(Cl)cc34)C2=O)cc1F` (stereo not shown) [Example D152, N-(2-(5-chloro-1H-indol-3-yl)ethyl)-1-(3-fluoro-4-methylphenyl)-2-oxopyrrolidine-3-carboxamide] displayed an EC50 of 99 nM.

Turning to `O=C(NCCc1c[nH]c2ccc(Cl)cc12)C1CCN(c2ccc(Cl)cc2)C1=O` (stereo not shown) [Example D153, N-(2-(5-chloro-1H-indol-3-yl)ethyl)-1-(4-chlorophenyl)-2-oxopyrrolidine-3-carboxamide], the EC50 was determined as 365 nM.

The compound `O=C(NCCc1c[nH]c2ccc(Cl)cc12)C1CCN(c2cccc(-n3cccc3)c2)C1=O` (stereo not shown) [Example D155, 1-(3-(1H-pyrrol-1-yl)phenyl)-N-(2-(5-chloro-1H-indol-3-yl)ethyl)-2-oxopyrrolidine-3-carboxamide] gave an EC50 of 1370 nM.

In turn, `CCc1ccccc1N1CCC(C(=O)NCCc2c[nH]c3ccc(Cl)cc23)C1=O` (stereo not shown) [Example D157, N-(2-(5-chloro-1H-indol-3-yl)ethyl)-1-(2-ethylphenyl)-2-oxopyrrolidine-3-carboxamide] registered an EC50 of 1210 nM.

Turning to `Cc1ccccc1N1CCC(C(=O)NCCc2c[nH]c3ccc(Cl)cc23)C1=O` (stereo not shown) [Example D158, N-(2-(5-chloro-1H-indol-3-yl)ethyl)-2-oxo-1-o-tolylpyrrolidine-3-carboxamide], the EC50 turned out to be 1030 nM.

With `Cc1cccc(N2CCC(C(=O)NCCc3c[nH]c4ccc(Cl)cc34)C2=O)c1` (stereo not shown) [Example D159, N-(2-(5-chloro-1H-indol-3-yl)ethyl)-2-oxo-1-m-tolylpyrrolidine-3-carboxamide], a half-maximal response (EC50) required 900 nM.

`Cn1ccc(N2CCC(C(=O)NCCc3c[nH]c4ccc(Cl)cc34)C2=O)n1` (stereo not shown) [Example D160, N-(2-(5-chloro-1H-indol-3-yl)ethyl)-1-(1-methyl-1H-pyrazol-3-yl)-2-oxopyrrolidine-3-carboxamide] returned a 50% effective concentration (EC50) of 1040 nM.

Turning to `COc1cccc(N2CCC(C(=O)NCCc3c[nH]c4ccc(Cl)cc34)C2=O)c1` (stereo not shown) [Example D162, N-(2-(5-chloro-1H-indol-3-yl)ethyl)-1-(3-methoxyphenyl)-2-oxopyrrolidine-3-carboxamide], a half-maximal effect (EC50) was put at 233 nM.

For `COc1ccccc1N1CCC(C(=O)NCCc2c[nH]c3ccc(Cl)cc23)C1=O` (stereo not shown) [Example D163, N-(2-(5-chloro-1H-indol-3-yl)ethyl)-1-(2-methoxyphenyl)-2-oxopyrrolidine-3-carboxamide], the midpoint of the response, the EC50, lay at 1860 nM.

The compound `O=C(NCCc1c[nH]c2ccc(Cl)cc12)C1CCN(CC2CCCCC2)C1=O` (stereo not shown) [Example D164, N-(2-(5-chloro-1H-indol-3-yl)ethyl)-1-(cyclohexylmethyl)-2-oxopyrrolidine-3-carboxamide] yielded an EC50 of 320 nM.

`Cc1ccc(N2CCC(C(=O)NCCc3c[nH]c4ccc(Cl)cc34)C2)cc1` (stereo not shown) [Example D165, N-(2-(5-chloro-1H-indol-3-yl)ethyl)-1-p-tolylpyrrolidine-3-carboxamide] came in with an EC50 of 188 nM.

`O=C(NCCc1n[nH]c2ccccc12)c1cc(Cc2cc(F)ccc2F)on1` [Example D166, N-(2-(1H-indazol-3-yl)ethyl)-5-(2,5-difluorobenzyl)isoxazole-3-carboxamide] came in with an EC50 of 631 nM.

`Cn1ccc2cc(N3CCC(C(=O)NCCc4c[nH]c5ccc(Cl)cc45)C3=O)ccc21` (stereo not shown) [Example D167, N-(2-(5-chloro-1H-indol-3-yl)ethyl)-1-(1-methyl-1H-indol-5-yl)-2-oxopyrrolidine-3-carboxamide] registered a concentration for a half-maximal effect (EC50) of 506 nM.

Turning to `O=C(NCCc1c[nH]c2ccc(Cl)cc12)c1noc(Cc2ccccc2)n1` [Example D168, 5-benzyl-N-(2-(5-chloro-1H-indol-3-yl)ethyl)-1,2,4-oxadiazole-3-carboxamide], a half-maximal response (EC50) required 77 nM.

For `O=C(NCCc1c[nH]c2ccc(Cl)cc12)c1noc(Cc2cccc(F)c2)n1` [Example D169, N-(2-(5-chloro-1H-indol-3-yl)ethyl)-5-(3-fluorobenzyl)-1,2,4-oxadiazole-3-carboxamide], the EC50 stood at 26 nM.

Compound `O=C(NCCc1c[nH]c2ccc(Cl)cc12)c1noc(Cc2ccccc2F)n1` [Example D170, N-(2-(5-chloro-1H-indol-3-yl)ethyl)-5-(2-fluorobenzyl)-1,2,4-oxadiazole-3-carboxamide] had an EC50 of 45 nM.

The compound `O=C(NCCc1c[nH]c2ccc(Cl)cc12)c1noc(Cc2ccc(F)cc2)n1` [Example D171, N-(2-(5-chloro-1H-indol-3-yl)ethyl)-5-(4-fluorobenzyl)-1,2,4-oxadiazole-3-carboxamide] displayed an EC50 of 32 nM.

`O=C(NCCc1c[nH]c2ccc(Cl)cc12)c1noc(Cc2ccc(Cl)cc2)n1` [Example D172, N-(2-(5-chloro-1H-indol-3-yl)ethyl)-5-(4-chlorobenzyl)-1,2,4-oxadiazole-3-carboxamide] yielded an EC50 of 34 nM.

Turning to `COc1ccc(Cc2nc(C(=O)NCCc3c[nH]c4ccc(Cl)cc34)no2)cc1` [Example D173, N-(2-(5-chloro-1H-indol-3-yl)ethyl)-5-(4-methoxybenzyl)-1,2,4-oxadiazole-3-carboxamide], the midpoint of the response, the EC50, lay at 60 nM.
